For nine cell lines, relative viability results are on record in the supplement of paper PMC10307832.

Experiment in all cases: relative viability (nuclei count vs DMSO), 5 days (fraction); higher = more cells survive
Compound in experiment [1]: CC(=O)Nc1cccc(-n2c(=O)n(C3CC3)c(=O)c3c(Nc4ccc(I)cc4F)n(C)c(=O)c(C)c32)c1 [Trametinib] + CC1(C)CCC(c2ccc(Cl)cc2)=C(CN2CCN(c3ccc(C(=O)NS(=O)(=O)c4ccc(N[C@H](CCN5CCOCC5)CSc5ccccc5)c(S(=O)(=O)C(F)(F)F)c4)cc3)CC2)C1 [Navitoclax] (partner 0.5 µM)
Summed up:
(§1)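 The day after seeding in 1536-well plates, lung cancer cell lines were treated by pin tool with a single drug, or with a fixed anchor-drug dose together with five library-drug doses (not always all listed) in √10 steps. After 5 days, a combined fix-and-stain solution (final 0.05% Triton X-100, 1% formaldehyde, 1 ug/ml Hoechst) was added. Nuclei counted on 4× images gave relative viability as treated counts over vehicle counts, reported as the median of duplicate plates.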

Compound in experiment [2]: CN1C=C(C2=CC=CC=C21)/C=C\3/C4=C(C=CC=N4)NC3=O + Nc1nc2[nH]cc(CCc3ccc(C(=O)N[C@@H](CCC(=O)O)C(=O)O)cc3)c2c(=O)[nH]1 [Pemetrexed] (partner 0.2 µM)
In a few lines: as §1

Compound in experiment [3]: CC(=O)Nc1cccc(-n2c(=O)n(C3CC3)c(=O)c3c(Nc4ccc(I)cc4F)n(C)c(=O)c(C)c32)c1 [Trametinib] + Cc1nc(NC(=O)N2CCC[C@H]2C(N)=O)sc1-c1ccnc(C(C)(C)C(F)(F)F)c1 [Alpelisib] (partner 2 µM)
Summed up:
as §1

Compound in experiment [4]: CC(=O)Nc1cccc(-n2c(=O)n(C3CC3)c(=O)c3c(Nc4ccc(I)cc4F)n(C)c(=O)c(C)c32)c1 [Trametinib] + COc1cc2c(Oc3ccc(NC(=O)C4(C(=O)Nc5ccc(F)cc5)CC4)cc3F)ccnc2cc1OCCCN1CCOCC1 [Foretinib] (partner 0.25 µM)
Summed up: as §1

In the case of NCI-H2126, the relative viability in experiment [1] (first compound 0.0025 µM) amounted to 0.781; in experiment [1] (first compound 0.007906 µM), 0.684; in experiment [1] (first compound 0.025 µM) it was 0.516; in experiment [1] (first compound 0.07906 µM) it was 0.589; in experiment [1] (first compound 0.25 µM), 0.508; in experiment [2] (first compound 0.02 µM) it was 0.694. Further, the relative viability in experiment [2] (first compound 0.06325 µM) is 0.62; in experiment [2] (first compound 0.2 µM), 0.674; in experiment [2] (first compound 0.6325 µM) it was 0.669; in experiment [2] (first compound 2 µM) it was 0.594; in experiment [3] (first compound 0.0025 µM) it was 0.706; in experiment [3] (first compound 0.007906 µM), 0.608. The relative viability in experiment [3] (first compound 0.025 µM) amounted to 0.447; in experiment [3] (first compound 0.07906 µM) it was 0.527; in experiment [3] (first compound 0.25 µM), 0.45; in experiment [4] (first compound 0.0025 µM), 1.01; in experiment [4] (first compound 0.007906 µM), 1.05; in experiment [4] (first compound 0.025 µM) it was 0.994. Also, the figures for the relative viability in experiment [4] (first compound 0.07906 µM) and in experiment [4] (first compound 0.25 µM) were 1 and 0.816, respectively.

Turning to LOU-NH91, the relative viability in experiment [1] (first compound 0.0025 µM) came to 0.657; in experiment [1] (first compound 0.007906 µM), 0.528; in experiment [1] (first compound 0.025 µM) it was 0.57; in experiment [1] (first compound 0.07906 µM), 0.448; in experiment [1] (first compound 0.25 µM), 0.32; in experiment [2] (first compound 0.02 µM) it was 0.368. Further, the relative viability in experiment [2] (first compound 0.06325 µM) is 0.387; in experiment [2] (first compound 0.2 µM) it was 0.365; in experiment [2] (first compound 0.6325 µM), 0.348; in experiment [2] (first compound 2 µM) it was 0.372; in experiment [3] (first compound 0.0025 µM) it was 0.674; in experiment [3] (first compound 0.007906 µM) it was 0.601. Moreover, the relative viability in experiment [3] (first compound 0.025 µM) was 0.619; in experiment [3] (first compound 0.07906 µM), 0.545; in experiment [3] (first compound 0.25 µM) it was 0.4; in experiment [4] (first compound 0.0025 µM) it was 0.909; in experiment [4] (first compound 0.007906 µM) it was 0.805; in experiment [4] (first compound 0.025 µM), 0.733. For the same cell line, the relative viability came out at 0.757 in experiment [4] (first compound 0.07906 µM) and 0.549 in experiment [4] (first compound 0.25 µM).

NCI-H1792: the relative viability in experiment [1] (first compound 0.0025 µM) amounted to 0.646; in experiment [1] (first compound 0.007906 µM), 0.596; in experiment [1] (first compound 0.025 µM), 0.417; in experiment [1] (first compound 0.07906 µM), 0.392; in experiment [1] (first compound 0.25 µM), 0.332; in experiment [2] (first compound 0.02 µM) it was 1.06. For the same cell line, the relative viability in experiment [2] (first compound 0.06325 µM) was 0.813; in experiment [2] (first compound 0.2 µM), 0.496; in experiment [2] (first compound 0.6325 µM) it was 0.74; in experiment [2] (first compound 2 µM), 0.825; in experiment [3] (first compound 0.0025 µM), 0.644; in experiment [3] (first compound 0.007906 µM) it was 0.53. Further, the figures for the relative viability in experiment [3] (first compound 0.025 µM), in experiment [3] (first compound 0.07906 µM) and in experiment [3] (first compound 0.25 µM) were 0.537, 0.382 and 0.255, respectively.

As to A549, the relative viability in experiment [1] (first compound 0.0025 µM) stood at 1.12; in experiment [1] (first compound 0.007906 µM), 0.81; in experiment [1] (first compound 0.025 µM), 0.464; in experiment [1] (first compound 0.07906 µM) it was 0.281; in experiment [1] (first compound 0.25 µM), 0.0636; in experiment [3] (first compound 0.0025 µM), 0.6. Besides, the relative viability in experiment [3] (first compound 0.007906 µM) worked out at 0.37; in experiment [3] (first compound 0.025 µM) it was 0.206; in experiment [3] (first compound 0.07906 µM) it was 0.158; in experiment [3] (first compound 0.25 µM) it was 0.0675; in experiment [4] (first compound 0.0025 µM), 0.817; in experiment [4] (first compound 0.007906 µM), 0.594. The relative viability was 0.534 in experiment [4] (first compound 0.025 µM), 0.178 in experiment [4] (first compound 0.07906 µM) and 0.0763 in experiment [4] (first compound 0.25 µM).

On to NCI-H522, for which the relative viability worked out at 0.743 in experiment [2] (first compound 0.02 µM); 0.775 in experiment [2] (first compound 0.06325 µM); 0.878 in experiment [2] (first compound 0.2 µM); 1.1 in experiment [2] (first compound 0.6325 µM); 0.998 in experiment [2] (first compound 2 µM).

On to NCI-H1703, for which the relative viability was 1.15 in experiment [1] (first compound 0.0025 µM); 1.15 in experiment [1] (first compound 0.007906 µM); 1.06 in experiment [1] (first compound 0.025 µM); 0.972 in experiment [1] (first compound 0.07906 µM); 0.987 in experiment [1] (first compound 0.25 µM); 0.367 in experiment [3] (first compound 0.0025 µM). The relative viability in experiment [3] (first compound 0.007906 µM) was 0.373; in experiment [3] (first compound 0.025 µM), 0.28; in experiment [3] (first compound 0.07906 µM), 0.306; in experiment [3] (first compound 0.25 µM), 0.29; in experiment [4] (first compound 0.0025 µM), 0.371; in experiment [4] (first compound 0.007906 µM), 0.315. Also, the relative viability in experiment [4] (first compound 0.025 µM) was determined as 0.357; in experiment [4] (first compound 0.07906 µM), 0.368; in experiment [4] (first compound 0.25 µM), 0.323.

Turning to NCI-H727, the relative viability in experiment [1] (first compound 0.0025 µM) turned out to be 0.158; in experiment [1] (first compound 0.007906 µM), 0.117; in experiment [1] (first compound 0.025 µM), 0.0956; in experiment [1] (first compound 0.07906 µM), 0.0926; in experiment [1] (first compound 0.25 µM), 0.0927; in experiment [3] (first compound 0.0025 µM) it was 0.312. In addition, the relative viability in experiment [3] (first compound 0.007906 µM) amounted to 0.211; in experiment [3] (first compound 0.025 µM), 0.227; in experiment [3] (first compound 0.07906 µM), 0.172; in experiment [3] (first compound 0.25 µM), 0.183; in experiment [4] (first compound 0.0025 µM) it was 0.455; in experiment [4] (first compound 0.007906 µM), 0.269. The relative viability in experiment [4] (first compound 0.025 µM) is 0.359; in experiment [4] (first compound 0.07906 µM), 0.32; in experiment [4] (first compound 0.25 µM), 0.238.

IA-LM: the relative viability in experiment [1] (first compound 0.0025 µM) amounted to 0.584; in experiment [1] (first compound 0.007906 µM) it was 0.383; in experiment [1] (first compound 0.025 µM) it was 0.179; in experiment [1] (first compound 0.07906 µM), 0.1; in experiment [1] (first compound 0.25 µM), 0.0292; in experiment [3] (first compound 0.0025 µM), 0.656. Further, the relative viability was determined as 0.393 in experiment [3] (first compound 0.007906 µM); 0.129 in experiment [3] (first compound 0.025 µM); 0.104 in experiment [3] (first compound 0.07906 µM); 0.109 in experiment [3] (first compound 0.25 µM); 1.09 in experiment [4] (first compound 0.0025 µM); 0.687 in experiment [4] (first compound 0.007906 µM). Further, the relative viability is 0.351 in experiment [4] (first compound 0.025 µM), 0.169 in experiment [4] (first compound 0.07906 µM) and 0.0888 in experiment [4] (first compound 0.25 µM).

For the cell line SW 900, the relative viability in experiment [2] (first compound 0.02 µM) was determined as 0.474; in experiment [2] (first compound 0.6325 µM), 0.512; in experiment [2] (first compound 2 µM), 0.486; in experiment [4] (first compound 0.0025 µM), 0.79; in experiment [4] (first compound 0.007906 µM), 0.669; in experiment [4] (first compound 0.025 µM), 0.708. Moreover, the relative viability in experiment [4] (first compound 0.07906 µM) is 0.698; in experiment [4] (first compound 0.25 µM) it was 0.499.
